# From patent publication US8071581B2, “Triazolopyridazine protein kinase modulators” (SGX Pharmaceuticals, Inc., priority 2006, dated 2011)
# Legend:
# [1] = biological target: MET kinase (c-MET), kinase domain of human Met (Homo sapiens, UniProt P08581); test: MET luminescence-based enzyme assay (Kinase-Glo)
# GTL16 = GTL16 cell assay (EC50); type: cell-based; settings: Homo sapiens, GTL 16; Table 1
# Procedure: Compounds were tested in the following assays in duplicate. 96-well XTT assay: Cells were grown in growth media containing various concentrations of compounds (duplicates) on a 96-well flat bottom plate for 72 hours at 37° C. in 5% CO2. The starting cell number was 5000 cells per well and volume was 120 μl. At the end of the 72-hour incubation, 40 μl of XTT labeling mixture (50:1 solution of sodium 3′-[1-(phenylaminocarbonyl)-3,4-tetrazolium]-bis(4-methoxy-6-nitro) benzene sulfonic acid hydrate and Electron-coupling reagent: PMS (N-methyl dibenzopyrazine methyl sulfate) were added to each well of the plate. After an additional 2-6 hours […] with a spectrophotometer.
# Chain of MET kinase (c-MET), kinase domain of human Met (P08581 1078-1345 limits assumed): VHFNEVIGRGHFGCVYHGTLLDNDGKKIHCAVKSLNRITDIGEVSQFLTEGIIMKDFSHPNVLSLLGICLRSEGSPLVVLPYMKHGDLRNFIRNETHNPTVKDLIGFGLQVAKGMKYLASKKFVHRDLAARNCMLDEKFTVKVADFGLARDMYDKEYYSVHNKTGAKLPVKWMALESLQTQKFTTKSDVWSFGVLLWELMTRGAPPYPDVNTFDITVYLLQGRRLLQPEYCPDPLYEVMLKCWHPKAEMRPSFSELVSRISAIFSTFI
Structure (SMILES),IC50 [1] [nM],EC50 (GTL16) [nM]
O=S(=O)(NC1CC1)c1ccc(-c2ccc3nnc(Cc4ccc5ncccc5c4)n3n2)cc1 [compound 1],< 100,100 to 1000
CCNS(=O)(=O)c1cccc(-c2ccc3nnc(Cc4ccc5ncccc5c4)n3n2)c1 [compound 3],< 100,< 100
Fc1ccc(Oc2ccc3nnc(Cc4ccc5ncccc5c4)n3n2)cc1 [compound 6],100 to 1000,100 to 1000
"Fc1ccc(Oc2ccc3nnc(Cc4ccc5ncccc5c4)n3n2)cc1F [compound 7, 6-[6-(3,4-Difluoro-phenoxy)-[1,2,4]triazolo[4,3-b]pyridazin-3-ylmethyl]-quinoline]",100 to 1000,100 to 1000
c1ccc(Oc2ccc3nnc(Cc4ccc5ncccc5c4)n3n2)cc1 [compound 8],100 to 1000,100 to 1000
COc1cccc(Oc2ccc3nnc(Cc4ccc5ncccc5c4)n3n2)c1 [compound 9],100 to 1000,100 to 1000
NS(=O)(=O)c1ccc(Oc2ccc3nnc(Cc4ccc5ncccc5c4)n3n2)cc1 [compound 10],1000 to 10000,10000 to 50000
NC(=O)c1ccc(Oc2ccc3nnc(Cc4ccc5ncccc5c4)n3n2)cc1 [compound 11],1000 to 10000,10000 to 50000
CS(=O)(=O)c1ccc(Oc2ccc3nnc(Cc4ccc5ncccc5c4)n3n2)cc1 [compound 12],1000 to 10000,10000 to 50000
Oc1ccc(Cc2nnc3ccc(-c4ccccc4)nn23)cc1 [compound 14],100 to 1000,1000 to 10000
"Clc1ccc2nnc(Cc3ccc4ncccc4c3)n2n1 [compound 15, 6-(6-Chloro-[1,2,4]triazolo[4,3-b]pyridazin-3-ylmethyl)-quinoline]",,1000 to 10000
c1ccc(-c2ccc3nnc(Cc4ccc5ncccc5c4)n3n2)cc1 [compound 16],100 to 1000,100 to 1000
CC(C)(c1ccc2ncccc2c1)c1nnc2ccc(-c3ccccc3)nn12 [compound 18],10000 to 50000,
NC(=O)c1ccc(-c2ccc3nnc(Cc4ccc5ncccc5c4)n3n2)cc1 [compound 24],< 100,< 100
Cc1ccc2nnc(Cc3c(F)cc4ncc(Br)cc4c3F)n2n1 [compound 28],1000 to 10000,100 to 1000
O=C(NC1CCCC1)c1cccc(-c2ccc3nnc(Cc4ccc5ncccc5c4)n3n2)c1 [compound 33],100 to 1000,100 to 1000
CN(C)C(=O)c1ccc(-c2ccc3nnc(Cc4ccc5ncccc5c4)n3n2)cc1 [compound 34],100 to 1000,100 to 1000
Cc1cccc(-c2ccc3nnc(Cc4ccc5ncccc5c4)n3n2)c1 [compound 35],< 100,100 to 1000
c1ccc(-c2ccc3nnc([C@H]4C[C@@H]4c4ccc5ncccc5c4)n3n2)cc1 [compound 40],10000 to 50000,
c1ccc(-c2ccc3nnc(Cc4ccc5ncsc5c4)n3n2)cc1 [compound 43],100 to 1000,100 to 1000
Clc1nc2ccc(Cc3nnc4ccc(-c5ccccc5)nn34)cc2s1 [compound 44],1000 to 10000,

Structure (SMILES),IC50 [1] [nM],EC50 (GTL16) [nM]
C/C=C/c1ccc2nnc(Cc3ccc4ncccc4c3)n2n1 [compound 46],100 to 1000,100 to 1000
CCNC(=O)c1cccc(-c2ccc3nnc(Cc4ccc5ncccc5c4)n3n2)c1 [compound 47],< 100,100 to 1000
N#Cc1cccc(-c2ccc3nnc(Cc4ccc5ncccc5c4)n3n2)c1 [compound 59],,< 100
N#Cc1ccc(-c2ccc3nnc(Cc4ccc5ncccc5c4)n3n2)cc1 [compound 60],,100 to 1000
Fc1ccc(-c2ccc3nnc(Cc4ccc5ncccc5c4)n3n2)cc1F [compound 73],,< 100
Cc1cc(Cc2nnc3ccc(-c4cnn(C)c4)nn23)cc2cccnc12 [compound 91],1000 to 10000,
Cn1cc(-c2ccc3nnc(Cc4cc(F)c5ncccc5c4)n3n2)cn1 [compound 92],1000 to 10000,
Fc1cccc(-c2ccc3nnc(Cc4ccc5ncsc5c4)n3n2)c1 [compound 93],1000 to 10000,
Cc1ccc2nnc(Cc3ccc4ncccc4c3)n2n1 [compound 105],100 to 1000,
Cc1ccc2nnc(Cc3ccc4ncc(Br)cc4c3)n2n1 [compound 106],100 to 1000,
"Cn1cc(-c2ccc3nnc(Cc4c[nH]c5ncccc45)n3n2)cn1 [compound 108, 6-(1-Methyl-1H-pyrazol-4-yl)-3-(1H-pyrrolo[2,3-b]pyridine-3-ylmethyl)-[1,2,4]triazolo[4,3-b]pyridazine]",,< 100
CCc1ccc2nnc(Cc3c(F)cc4ncc(Br)cc4c3F)n2n1 [compound 115],100 to 1000,
Cc1ccc2nnc(Cc3ccc4ncc(-n5cccn5)cc4c3)n2n1 [compound 127],100 to 1000,
Cc1ccc2nnc(Cc3ccc4ncc(-c5c[nH]nc5C)cc4c3)n2n1 [compound 150],100 to 1000,
CCc1ccc2nnc(Cc3ccc4ncc(-c5cnn(C6CNC6)c5)cc4c3F)n2n1 [compound 184],< 100,
CCc1ccc2nnc(Cc3c(F)cc4ncc(-c5cnn(C6CNC6)c5)cc4c3F)n2n1 [compound 185],< 100,
CCc1ccc2nnc(Cc3c(F)cc4ncc(-c5cnn(C6CN(CC)C6)c5)cc4c3F)n2n1 [compound 187],< 100,
CCN1CC(n2cc(-c3cnc4cc(F)c(Cc5nnc6ccc(C)nn56)c(F)c4c3)cn2)C1 [compound 188],< 100,
CCN1CC(n2cc(-c3cnc4ccc(C(C)c5nnc6ccc(C)nn56)cc4c3)cn2)C1 (stereo not drawn) [compound 190],< 100,
Cc1ccc2nnc(C(C)c3ccc4ncc(-c5cnn(C)c5)cc4c3)n2n1 (stereo not drawn) [compound 191],< 100,

# Next, values leading:
IC50 [1] [nM],EC50 (GTL16) [nM],Structure (SMILES)
100 to 1000,100 to 1000,O=S(=O)(c1ccc(-c2ccc3nnc(Cc4ccc5ncccc5c4)n3n2)cc1)N1CCCC1 [compound 2]
100 to 1000,1000 to 10000,NC(=O)c1ccc(F)c(-c2ccc3nnc(Cc4ccc5ncccc5c4)n3n2)c1 [compound 4]
100 to 1000,100 to 1000,CS(=O)(=O)c1ccc(-c2ccc3nnc(Cc4ccc5ncccc5c4)n3n2)cc1 [compound 5]
1000 to 10000,10000 to 50000,Oc1ccc(Cc2nnc3ccc(Cl)nn23)cc1 [compound 13]
< 100,< 100,CC(c1ccc2ncccc2c1)c1nnc2ccc(-c3cccc(F)c3)nn12 (stereo not drawn) [compound 20]
100 to 1000,1000 to 10000,N#Cc1cccc(-c2ccc3nnc(C(F)c4ccc5ncccc5c4)n3n2)c1 (stereo not drawn) [compound 22]
100 to 1000,100 to 1000,O=C(c1ccc(-c2ccc3nnc(Cc4ccc5ncccc5c4)n3n2)cc1)N1CCOCC1 [compound 23]
< 100,100 to 1000,NS(=O)(=O)c1cccc(-c2ccc3nnc(Cc4ccc5ncccc5c4)n3n2)c1 [compound 25]
100 to 1000,1000 to 10000,CN(C)S(=O)(=O)c1ccc(-c2ccc3nnc(Cc4ccc5ncccc5c4)n3n2)cc1 [compound 29]
< 100,< 100,Fc1cccc(-c2ccc3nnc(Cc4ccc5ncccc5c4)n3n2)c1 [compound 31]
< 100,< 100,NCc1ccc(-c2ccc3nnc(Cc4ccc5ncccc5c4)n3n2)cc1 [compound 32]
< 100,< 100,Cc1ccc(-c2ccc3nnc(Cc4ccc5ncccc5c4)n3n2)cc1 [compound 36]
100 to 1000,< 100,CNS(=O)(=O)c1ccc(-c2ccc3nnc(Cc4ccc5ncccc5c4)n3n2)cc1 [compound 37]
1000 to 10000,,"Cc1ccc2cc(Cc3nnc4ccc(-c5ccccc5)nn34)ccc2n1 [compound 38, 2-Methyl-6-(6-phenyl-[1,2,4]triazolo[4,3-b]pyridazin-3-ylmethyl)-quinoline]"
10000 to 50000,,c1ccc(-c2ccc3nnc(CCc4ccc5ncccc5c4)n3n2)cc1 [compound 39]
100 to 1000,1000 to 10000,Nc1nc2ccc(Cc3nnc4ccc(-c5ccccc5)nn34)cc2s1 [compound 42]
100 to 1000,100 to 1000,"c1ccc(-c2ccc3nnc(Cc4ccc5nc[nH]c5c4)n3n2)cc1 [compound 45, 3-(3H-Benzoimidazol-5-ylmethyl)-6-phenyl-[1,2,4]triazolo[4,3-b]pyridazine]"
100 to 1000,,Fc1cc(F)cc(-c2ccc3nnc(Cc4ccc5ncsc5c4)n3n2)c1 [compound 97]
100 to 1000,,"C[C@H](c1ccc2ncsc2c1)c1nnc2ccc(-c3cccc(C#N)c3)nn12 [compound 104, I-3-[3-(1-Benzothiazol-6-yl-ethyl)-[1,2,4]triazolo[4,3-b]pyridazin-6-yl]-benzonitrile]"
1000 to 10000,,"Cc1ccc2nnc(Cc3ccc4ncc(C#N)cc4c3)n2n1 [compound 110, 6-(6-Methyl-[1,2,4]triazolo[4,3-b]pyridazin-3-ylmethyl)-quinoline-3-carbonitrile]"
< 100,,"CCc1cnc2ccc(Cc3nnc4ccc(C)nn34)cc2c1 [compound 116, 3-Ethyl-6-(6-methyl-[1,2,4]triazolo[4,3-b]pyridazin-3-ylmethyl)-quinoline]"
< 100,,"Cc1ccc2nnc(C(C)c3ccc4ncc(Br)cc4c3)n2n1 (stereo not drawn) [compound 119, 3-Bromo-6-[1-(6-methyl-[1,2,4]triazolo[4,3-b]pyridazin-3-yl)-ethyl]-quinoline]"
100 to 1000,,CCc1ccc2nnc(Cc3ccc4ncc(Br)cc4c3F)n2n1 [compound 121]
1000 to 10000,,Cc1ccc2nnc(Cn3ccc4ncc(-c5cnn(C)c5)cc43)n2n1 [compound 178]
< 100,,Cc1ccc2nnc(Cc3ccc4ncc(-c5cnn(C6CN(C)C6)c5)cc4c3)n2n1 [compound 183]
< 100,,CCc1ccc2nnc(Cc3ccc4ncc(-c5cnn(C6CN(CC)C6)c5)cc4c3F)n2n1 [compound 186]
< 100,,CCc1ccc2nnc(Cc3ccc4ncc(-c5cnn(C6CNC6)c5)cc4c3)n2n1 [compound 189]
